# In patent US20130137760A1, “GAMBOGIC AMINE, A SELECTIVE TRKA AGONIST WITH NEUROPROTECTIVE ACTIVITY” (EMORY UNIVERSITY, priority 2007, published 2013):
# Legend:
# hippocampal neurons [1] = assay: OGD (Oxygen and Glucose Deprivation) neuronal cell death in hippocampal neurons; type: cell-based; conditions: in vitro
# Method: NGF overexpression decreases infarct volume and neuronal apoptosis in transgenic mice or intraventricular injected mice (Guegan et al., 1998; Luk et al., 2004). NGF also potently protects PC12 cells from apoptosis in an OGD (Oxygen-glucose-deprivation) model (Tabakman et al., 2005). To explore whether test compounds might exert any protective effect on hippocampal neurons in OGD, the primary preparations can be pre-treated with NGF or test compounds 30 min before OGD stimulation. […] Titration assays can show whether the compounds protect neurons in a dose-dependent manner. Therefore, the assay can identify compounds which selectively protect TrkA expression cells and primary neurons from apoptosis.
# NGF overexpression decreases infarct volume and neuronal apoptosis in transgenic mice or intraventricular injected mice (Guegan et al., 1998; Luk et al., 2004). NGF also potently protects PC12 cells from apoptosis in an OGD (Oxygen-glucose-deprivation) model (Tabakman et al., 2005). To explore whether gambogic amines exert any protective effect on hippocampal neurons in OGD, one can pre-treat the primary preparations with NGF or various compounds 30 min before OGD stimulation. […] Titration assays can reveal whether or not the compounds protect neurons in a dose-dependent manner. […]
# hippocampal neurons [2] = assay: Glutamate-triggered neuronal cell death in hippocampal neurons; type: cell-based; conditions: in vitro
# Method: To examine whether test compounds can promote neuronal survival, hippocampal neurons can be prepared, and the primary neurons pre-treated with various test compounds for a period of time, for example, 30 min, followed by 50 μM glutamate treatment for a period of time, for example, 16 h.
# TrkA is highly expressed in hippocampal neurons (Culmsee et al., 2002; Kume et al., 2000; Zhang et al., 1993). […] To examine whether these compounds can promote neuronal survival, one can prepare hippocampal neurons and pre-treat the primary neurons with various gambogic amine derivatives for 30 min, followed by 50 μM glutamate treatment for 16 h.
# hippocampus = assay: Kainic acid-elicited neuronal cell death in mouse brain (TUNEL, hippocampus); type: in vivo, C57BL/6 mice; conditions: mouse brain
# Text: Kainic acid (KA) is a potent agonist for the AMPA receptor. Peripheral injections of KA result in recurrent seizures and the subsequent degeneration of select populations of neurons in the hippocampus (Nadler et al., 1980; Schauwecker and Steward, 1997; Sperk et al., 1983). It has been shown that the activation of caspase-3 is a necessary component of KA-induced cell death (Faherty et al., 1999). To explore whether test compounds can block the neurotoxicity initiated by KA, the compounds can be subcutaneously injected (for example, at a concentration of 2 mg/kg) into C57BL/6 mice, followed by 25 mg/kg KA. In 5 days, the mice can be perfused and the brains cut to a thickness of 5 μm and mounted on slides.
# Kainic acid (KA) is a potent agonist for the AMPA receptor. Peripheral injections of KA result in recurrent seizures and the subsequent degeneration of select populations of neurons in the hippocampus (Nadler et al., 1980; Schauwecker and Steward, 1997; Sperk et al., 1983). It has been shown that the activation of caspase-3 is a necessary component of KA-induced cell death (Faherty et al., 1999). To explore whether gambogic amines can block the neurotoxicity initiated by KA, one can subcutaneously inject 2 mg/kg of a gambogic amine into C57BL/6 mice, followed by 25 mg/kg KA. In 5 days, the mice can be perfused and the brains were cut to a thickness of 5 μm and mounted on slides. TUNEL staining can reveal whether KA provokes enormous apoptosis in the hippocampus, and whether this effect is substantially diminished by the gambogic amine.
# Male C57BL/6 mice aged of 60 days can be injected subcutaneously (s.c.) with a single dose of either 30% ethanol in saline or KA (25 mg/kg) (Sigma, Mo.) or the gambogic amine (2 mg/kg) followed by KA. Animals can be continually monitored for 2 h for the onset of seizure activity. At 5 days following treatment, animals can be anesthetized and perfused with 4% paraformaldehyde in 0.1 M phosphate buffered saline. Brains can be removed, post-fixed overnight and processed for paraffin embedding. […]
structure (smiles),measurement,setting,value
CC(C)=CCC[C@]1(C)C=Cc2c(O)c3c(c(CC=C(C)C)c2O1)O[C@]12C(=C[C@@H]4CC1C(C)(C)O[C@@]2(C/C=C(/C)C(N)=O)C4=O)C3=O [gambogic amide],protection of hippocampal neurons from OGD neuronal cell death,hippocampal neurons [1],potent neurotrophic effects
same,protection of hippocampal neurons from glutamate-triggered neuronal cell death,hippocampal neurons [2],potent neurotrophic effects
same,block of kainic acid-elicited neuronal cell death in mouse brain,hippocampus,strongly block
